Measured values reported in patent publication US11690822B2, “Method for treating non-compaction cardiomyopathy” (EXCELSIOR PHARMATECH LABS, priority 2018, dated 2023).

Columns and labels:
LVNC cardiomyocytes [1] = assay: Seahorse assay of mitochondrial function (OCR, ECAR) in LVNC-hiPSC-derived cardiomyocytes; assay type: cell-based, human; conditions: 5 μM, iH LVNC cardiomyocytes, FIG. 2C
Description: Human induced pluripotent stem cell (hiPSC) lines respectively derived from patients with left ventricular non-compaction cardiomyopathy (LVNC) and a normal healthy […] were reprogrammed through two approaches; one line of each patient was reprogrammed from skin cells by lentivirus carrying four Yamanaka factors (Klf4, Myc, Sox2, Oct4; conducted by Dr. Hong-Nerng Ho at NTU) and the other line was reprogrammed from peripheral blood monocytes (PBMC) by Sendai virus carrying the four Yamanaka factors (conducted by Dr. Joseph C. Wu at Stanford University). Patients consented to collect patients' tissues/blood cells for genetic examination, reprogramming to hiPSC, and pharmacological studies. […] Cell shortening was measured by the Ionoptix system (Westwood, Mass., USA), and mitochondrial function was assessed by an Agilent seahorse analyzer (Seahorse Bioscience, MA, USA).
Seahorse assay was performed on day 70 to measure mitochondrial OCR (Oxygen Consumption Rate) and ECAR (Extracellular Acidification Rate) under the conditions in the sequential adding of the XF mito stress test kit with the indicated reagents by the arrows. […] The relationship of OCR vs. ECAR was measured under the conditions of basal (before oligomycin) and maximum respiratory capacity (after FCCP).

LVNC cardiomyocytes [2] = assay: Cell shortening (Ionoptix) and inotropic response to isoprenaline in LVNC-hiPSC-CMs; assay type: cell-based, human; conditions: 5 μM; isoprenaline 0.03, 0.1, 1 μM; treatment day 30 through day 70; FIG. 3B
Description: Human induced pluripotent stem cell (hiPSC) lines respectively derived from patients with left ventricular non-compaction cardiomyopathy (LVNC) and a normal healthy […] were reprogrammed through two approaches; one line of each patient was reprogrammed from skin cells by lentivirus carrying four Yamanaka factors (Klf4, Myc, Sox2, Oct4; conducted by Dr. Hong-Nerng Ho at NTU) and the other line was reprogrammed from peripheral blood monocytes (PBMC) by Sendai virus carrying the four Yamanaka factors (conducted by Dr. Joseph C. Wu at Stanford University). Patients consented to collect patients' tissues/blood cells for genetic examination, reprogramming to hiPSC, and pharmacological studies. Drug effect was validated via testing the same drug at the same dose in human cardiomyocytes derived from the two lines of the same patient with at least three independent repeats in each line. Cell shortening was measured by the Ionoptix system (Westwood, Mass., USA), and mitochondrial function was assessed by an Agilent seahorse analyzer (Seahorse Bioscience, MA, USA).

[3] = test system: Tnnt2^R154W/+::Mypn^S1291T/+ LVNC mice; assay: Echocardiography of cardiac function (LVEF) in LVNC mice; assay type: in vivo, mouse
Protocol: Tnnt2(R154W)- and Mypn(S1291T)-knockin mice on C57BL/6j background were generated by Gene Knockout Mouse Core Laboratory of National Taiwan University Center of Genomic Medicine. Genetically heterozygous LVNC mice (Tnnt2(R154W)^+/−:: Mypn(S1291T)^+/−) were obtained from crossing Tnnt2(R154W)^+/− and Mypn(S1291T)^+/− mice. PCR and DNA sequencing were performed to confirm the genotype. All animal procedures and protocols were approved by AAALAC-accredited facility.
The cardiac motion function of LVNC mice was measured through echocardiography in M-mode by the VisualSonic vevo 2100 imaging system (VisualSonic Inc., Toronto, Canada). Cardiac glucose metabolic rate of LVNC mice was measured by dynamic small animal positron emission tomography (PET) observation under anesthetization by 2% isoflurane inhalation. ^18F-FDG (fluorodeoxyglucose 18F) uptake in LVNC mouse heart was measured for the analysis of cardiac glucose metabolic rate (MRGlu) by dynamic small animal positron emission tomography (PET) to examine the changes in cardiometabolism.
Repeated measures two-way ANOVA with multiple comparisons by the Tukey test was used to distinguish the difference in cell shortening velocity between DMSO- and simvastatin-groups on day 50 and day 70 in LVNC-hiPSC-CMs of iFa and iH. […]

LVNC cardiomyocytes [4] = assay: Proteomic analysis (LC-MS/MS) of LVNC cardiomyocytes treated with or without simvastatin; assay type: cell-based, human
Protocol: The samples were further digested by trypsin. After being desalted and dried, LC-MS/MS analysis was performed by the LTQ-Orbitrap Velos mass spectrometer system. The peptide and protein group IDs were obtained by MASCOT database searching with precursor mass accuracy of 7 ppm and MS/MS accuracy of 0.5 Da. The large mass-spectrometric raw data were further analyzed by the MaxQuant software based on the Uniprot human database with a label-free quantification method and followed by the statistical analysis using the Perseus software.

Cc1cc(C)c(CNC(=O)c2cc(-c3ccc(N4CCN(C)CC4)nc3)cc3c2c(C)cn3C(C)C)c(=O)[nH]1 [GSK503]
OCR and ECAR of LVNC cardiomyocytes (mitochondrial function) (LVNC cardiomyocytes [1]): does not significantly improve OCR or ECAR | OCR and ECAR of LVNC cardiomyocytes (mitochondrial function) (LVNC cardiomyocytes [1]; listed as gsk): did not change cardiac mitochondrial dysfunction

O=C(CCCCCCC(=O)Nc1ccccc1)NO [SAHA]
cardiac contraction and positive inotropic response to isoprenaline-induced β-stimulation (LVNC cardiomyocytes [2]): unable to improve LVNC cardiac functions

CC(C)c1c(C(=O)Nc2ccccc2)c(-c2ccccc2)c(-c2ccc(F)cc2)n1CC[C@@H](O)C[C@@H](O)CC(=O)O [atorvastatin]
cardiac contraction and positive inotropic response to isoprenaline-induced β-stimulation (LVNC cardiomyocytes [2]): the efficacy of simvastatin is better than those of the other statins

CC[C@H](C)C(=O)O[C@H]1C[C@@H](C)C=C2C=C[C@H](C)[C@H](CC[C@@H]3C[C@@H](O)CC(=O)O3)[C@H]21 [lovastatin]
cardiac contraction and positive inotropic response to isoprenaline-induced β-stimulation (LVNC cardiomyocytes [2]): the efficacy of simvastatin is better than those of the other statins

CCC(C)(C)C(=O)O[C@H]1C[C@@H](C)C=C2C=C[C@H](C)[C@H](CC[C@@H]3C[C@@H](O)CC(=O)O3)[C@H]21 [simvastatin]
slope of linear regression of LVEF % vs. day ([3]; S(d1-84): treated initial 84 days, then 42 days drug holiday, P=0.1326, R square=0.3352, not significantly deviated from zero): 0.05031 | slope of linear regression of LVEF % vs. day ([3]; S(d1-126): continuous treatment 126 days, 3.5 mg/kg/day osmotic pump, P=0.0297, R square=0.6445, significantly deviated from zero): 0.1098 | number of proteins highly expressed in both healthy/iH,ctrl and iH,s/iH,ctrl (LVNC cardiomyocytes [4]; iH LVNC cardiomyocytes, FIG. 4C): 69 proteins | number of proteins significantly upregulated in both iF,s/iF,ctrl and iH,s/iH,ctrl (LVNC cardiomyocytes [4]; two LVNC patients (iFa & iH), FIG. 4D): 27 proteins
